Measured values taken from patent US8524917B2, “6-substituted indole-3-carboxylic acid amide compounds having sphingosine-1-phosphate (S1P) receptor antagonist biological activity” (Allergan, Inc., priority 2007, dated 2013).
Like-named read-outs stand apart in the source and are kept apart here.

Molecular target: human S1P3 receptor (Homo sapiens (Human), UniProt Q99500)
Assay: Activation or block of activation of human S1P3 receptor, Ca+2 FLIPR assay
Type: cell-based
Settings: for IC50: read-out: S1P3 IC50
Procedure: Compounds were assessed for their ability to activate or block activation of the human S1P3 receptor in T24 cells stably expressing the human S1P3 receptor. Ten thousand cells/well were plated into 384-well poly-D-lysine coated plates one day prior to use. The growth media for the S1P3 receptor expressing cell line was McCoy's 5A medium supplemented with 10% charcoal-treated fetal bovine serum (FBS), 1% antibiotic-antimycotic and 400 μg/ml geneticin. On the day of the experiment, the cells were washed twice with Hank's Balanced Salt Solution supplemented with 20 mM HEPES (HBSS/Hepes buffer). […] Extracellular dye was removed by washing the cell plates four times prior to placing the plates in the FLIPR (Fluorometric Imaging Plate Reader, Molecular Devices). Ligands were diluted in HBSS/Hepes buffer and prepared in 384-well microplates. The positive control, Sphingosine-1-Phosphate (S1P), was diluted in HBSS/Hepes buffer with 4 mg/ml fatty acid free bovine serum albumin. The FLIPR transferred 12.5 μl from the ligand microplate to the cell plate and took fluorescent measurements for 75 seconds, taking readings every second, and then for 2.5 minutes, taking readings every 10 seconds. […] IC50 values were determined through a […] analysis using the Levenburg Marquardt algorithm.

[1] = T24 cells stably expressing the human S1P3 receptor, FLIPR Ca+2 response, 0.61 nM to 10,000 nM
[2] = T24 cells stably expressing the human S1P3 receptor, value in brackets
[3] = T24 cells stably expressing the human S1P3 receptor, second concentration in the cell, read-out: S1P3 Kb

Sequence of human S1P3 receptor (Q99500 whole entry): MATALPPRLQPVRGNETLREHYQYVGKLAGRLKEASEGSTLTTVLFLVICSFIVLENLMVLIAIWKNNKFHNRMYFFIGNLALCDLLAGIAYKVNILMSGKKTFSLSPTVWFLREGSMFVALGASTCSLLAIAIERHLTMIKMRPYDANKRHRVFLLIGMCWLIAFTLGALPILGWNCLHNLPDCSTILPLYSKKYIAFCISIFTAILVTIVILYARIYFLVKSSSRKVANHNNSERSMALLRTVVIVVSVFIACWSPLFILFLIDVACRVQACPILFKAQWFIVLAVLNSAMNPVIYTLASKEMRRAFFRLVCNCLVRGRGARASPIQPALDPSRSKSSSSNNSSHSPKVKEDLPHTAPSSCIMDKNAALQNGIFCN

Row | SMILES | IC50 [1] | S1P3 (% inh) [2] | other results
1 | CC(C)c1c(C(=O)NCc2ccc(F)c(F)c2)c2ccc(OC(=O)N(C)C)cc2n1Cc1ccccc1 [Compound 21, 1-benzyl-3-(3,4-difluorobenzylcarbamoyl)-2-isopropyl-1H-indol-6-yl Dimethylcarbamate] | 0.024 µM | 99% | –
2 | CC(C)Cn1c(C(C)C)c(C(=O)NCc2ccc(F)c(F)c2)c2ccc(OC3CCCC3)cc21 [Compound 159, 6-(Cyclopentyloxy)-N-(3,4-difluorobenzyl)-1-isobutyl-2-isopropyl-1H-indole-3-carboxamide] | 0.041 µM | 96% | –
3 | CC(C)Oc1ccc2c(C(=O)NCc3ccc(F)c(F)c3)c(C=O)n(Cc3ccccn3)c2c1 [Compound 105, N-(3,4-Difluorobenzyl)-2-formyl-6-isopropoxy-1-(pyridin-2-ylmethyl)-1H-indole-3-carboxamide] | 0.485 µM | 98% | –
4 | CCOC(=O)c1ccc2c(C(=O)NCc3cncc(F)c3)c(C(C)C)n(Cc3ccccc3)c2c1 [Compound 44, Ethyl 1-Benzyl-3-((5-fluoropyridin-3-yl)methylcarbamoyl)-2-isopropyl-1H-indole-6-carboxylate] | – | – | S1P3 (% inh): 24 nM (100) %; IC50: 0.024 µM
5 | CC(C)c1c(C(=O)NCc2ccc(F)c(F)c2)c2ccc(C3=NCCO3)cc2n1Cc1ccccc1 [Compound 70, 1-Benzyl-N-(3,4-difluorobenzyl)-6-(4,5-dihydrooxazol-2-yl)-2-isopropyl-1H-indole-3-carboxamide] | – | – | S1P3 (% inh): 36 nM (100) %; IC50: 0.036 µM
6 | CC(C)c1c(C(=O)NCc2ccc(F)c(F)c2)c2ccc(/C=N/OC(C)(C)C)cc2n1Cc1ccccc1 | 0.145 µM | 99% | –
7 | CC(C)c1c(C(=O)NCc2cncc(F)c2)c2ccc(OC3CCCC3)cc2n1Cc1cccnc1 [Compound 163, 6-(Cyclopentyloxy)-N-((5-fluoropyridin-3-yl)methyl)-2-isopropyl-1-(pyridin-3-ylmethyl)-1H-indole-3-carboxamide] | 0.055 µM | 100% | –
8 | CC(C)c1c(C(=O)NCc2cncc(F)c2)c2ccc(C3=N[C@@H](C)CO3)cc2n1Cc1ccccc1 [Compound 72, (S)-1-Benzyl-N-((5-fluoropyridin-3-yl)methyl)-2-isopropyl-6-(4-methyl-4,5-dihydrooxazol-2-yl)-1H-indole-3-carboxamide] | – | – | S1P3 (% inh): 43 nM (99) %; IC50: 0.043 µM
9 | CC(C)c1c(C(=O)NCc2ccc(F)c(F)c2)c2ccc(CN(C)C)cc2n1Cc1ccccc1 | 0.99 µM | 98% | –
10 | CC(C)c1c(C(=O)NCc2cc(F)cc(F)c2)c2ccc(NC3CCC3)cc2n1Cc1ccccc1 [Compound 194, 1-Benzyl-6-(cyclobutylamino)-N-(3,5-difluorobenzyl)-2-isopropyl-1H-indole-3-carboxamide] | – | – | S1P3 (% inh): 20 nM (100) %; IC50: 0.02 µM
11 | CCOC(=O)c1ccc2c(C(=O)NCc3ccccc3)c(C(C)C)n(Cc3ccccc3)c2c1 | 0.009 µM | 96% | –
12 | CC[C@H]1COC(c2ccc3c(C(=O)NCc4ccc(F)c(F)c4)c(C(C)C)n(Cc4ccccn4)c3c2)=N1 [Compound 80, (S)—N-(3,4-Difluorobenzyl)-6-(4-ethyl-4,5-dihydrooxazol-2-yl)-2-isopropyl-1-(pyridin-2-ylmethyl)-1H-indole-3-carboxamide] | 0.007 µM | 99% | –
13 | CC(C)NCc1ccc2c(C(=O)NCc3ccc(F)c(F)c3)c(C(C)C)n(Cc3ccccc3)c2c1 | 2.3 µM | 84% | –
14 | CC(C)Oc1ccc2c(C(=O)NCc3ccc(F)c(F)c3)c(CN3CCCC3)n(Cc3ccccn3)c2c1 [Compound 175, N-(3,4-Difluorobenzyl)-6-isopropoxy-1-(pyridin-2-ylmethyl)-2-(pyrrolidin-1-ylmethyl)-1H-indole-3-carboxamide] | 1.1 µM | 100% | –
15 | CCCCOc1ccc2c(C(=O)NCc3ccc(F)c(F)c3)c(C(C)C)n(Cc3ccccc3)c2c1 [Compound 12, 1-Benzyl-6-butoxy-N-(3,4-difluorobenzyl)-2-isopropyl-1H-indole-3-carboxamide] | 0.003 µM | 100% | –
16 | CC(C)COc1ccc2c(C(=O)NCc3ccc(F)c(F)c3)c(C(C)C)n(Cc3ccccc3)c2c1 [Compound 13, 1-Benzyl-N-(3,4-difluorobenzyl)-6-isobutoxy-2-isopropyl-1H-indole-3-carboxamide] | 0.0012 µM | 100% | Kb [3]: 0.0016 µM
17 | CCOC(=O)c1ccc2c(C(=O)NCc3ccc(F)c(F)c3)c(C(C)C)n(Cc3ccccc3)c2c1 [Compound 43, Ethyl 1-Benzyl-3-(3,4-difluorobenzylcarbamoyl)-2-isopropyl-1H-indole-6-carboxylate] | 0.007 µM | 100% | Kb [3]: 0.008 µM

Row | SMILES | IC50 [1] | S1P3 (% inh) [2] | other results
18 | CC(C)Oc1ccc2c(C(=O)NCc3ccc(F)c(F)c3)c(CN(C)C)n(Cc3ccccn3)c2c1 [Compound 98, N-(3,4-Difluorobenzyl)-2-((dimethylamino)methyl)-6-isopropoxy-1-(pyridin-2-ylmethyl)-1H-indole-3-carboxamide] | 0.632 µM | 100% | –
19 | COCOc1ccc2c(C(=O)NCc3ccc(F)c(F)c3)c(C(C)C)n(Cc3ccccc3)c2c1 [Compound 26, 1-Benzyl-N-(3,4-difluorobenzyl)-2-isopropyl-6-(methoxymethoxy)-1H-indole-3-carboxamide] | – | – | Kb: 0.013 µM; S1P3 (% inh): 39 nM (100) 13 nM %; IC50: 0.039 µM
20 | CC(C)c1c(C(=O)NCc2ccc(F)c(F)c2)c2ccc(O)cc2n1Cc1cccnc1 [Compound 151, N-(3,4-Difluorobenzyl)-6-hydroxy-2-isopropyl-1-(pyridin-3-ylmethyl)-1H-indole-3-carboxamide] | – | – | S1P3 (% inh): 65 nM (98) %; IC50: 0.065 µM
21 | CCOC(=O)c1ccc2c(C(=O)NCc3cncc(F)c3)c(C(C)C)n(Cc3ccccn3)c2c1 [Compound 49, Ethyl 3-((5-Fluoropyridin-3-yl)methylcarbamoyl)-2-isopropyl-1-(pyridin-2-ylmethyl)-1H-indole-6-carboxylate] | 0.87 µM | 100% | –
22 | CCCNCc1ccc2c(C(=O)NCc3ccc(F)c(F)c3)c(C(C)C)n(Cc3ccccc3)c2c1 | 2.6 µM | 77% | –
23 | CCOC(=O)c1ccc2c(C(=O)NCc3cccc(F)c3)c(C(C)C)n(Cc3ccccc3)c2c1 | 0.042 µM | 99% | –
24 | CC(C)c1c(C(=O)NCc2ccc(F)c(F)c2)c2ccc(C3=N[C@@H](C)CO3)cc2n1Cc1ccccc1 [Compound 76, (S)-1-Benzyl-N-(3,4-difluorobenzyl)-2-isopropyl-6-(4-methyl-4,5-dihydrooxazol-2-yl)-1H-indole-3-carboxamide] | 0.033 µM | 99% | –
25 | CCCOc1ccc2c(C(=O)NCc3ccc(F)c(F)c3)c(C(C)C)n(Cc3ccccc3)c2c1 [Compound 10, 1-Benzyl-N-(3,4-difluorobenzyl)-2-isopropyl-6-propoxy-1H-indole-3-carboxamide] | – | – | Kb [3]: 0.002 µM
26 | CC(C)c1c(C(=O)NCc2ccc(F)cc2)c2ccc(NC3CCC3)cc2n1Cc1ccccc1 [Compound 195, 1-Benzyl-6-(cyclobutylamino)-N-(4-fluorobenzyl)-2-isopropyl-1H-indole-3-carboxamide] | 0.051 µM | 99% | –
27 | CCOC(=O)Cn1c(C(C)C)c(C(=O)NCc2ccc(F)c(F)c2)c2ccc(OC3CCCC3)cc21 [Compound 223, Ethyl 2-(6-(Cyclopentyloxy)-3-(3,4-difluorobenzylcarbamoyl)-2-isopropyl-1H-indol-1-yl)acetate] | – | – | S1P3 (% inh): 24 nM (100) %; IC50: 0.024 µM
28 | CC(C)c1c(C(=O)NCc2ccc(F)c(F)c2)c2ccc(OC3CCOC3)cc2n1Cc1ccccn1 (centres unmarked) | 0.019 µM | 100% | Kb [3]: 0.021 µM
29 | CCOC(=O)c1ccc2c(C(=O)NCc3cc(F)cc(F)c3)c(C(C)C)n(Cc3ccccn3)c2c1 [Compound 48, Ethyl 3-(3,5-Difluorobenzylcarbamoyl)-2-isopropyl-1-(pyridin-2-ylmethyl)-1H-indole-6-carboxylate] | 0.024 µM | 100% | –
30 | CC(C)c1c(C(=O)NCc2cccnc2)c2ccc(O)cc2n1Cc1ccccn1 | – | ND (54) % | –
31 | CCCCCCOc1ccc2c(C(=O)NCc3ccc(F)c(F)c3)c(C(C)C)n(Cc3ccccc3)c2c1 [Compound 14, 1-Benzyl-N-(3,4-difluorobenzyl)-6-(hexoxy)-2-isopropyl-1H-indole-3-carboxamide] | – | – | S1P3 (% inh): 3.1 μM (96) %; IC50: 3.1 µM
32 | CC(C)c1c(C(=O)NCc2ccc(F)c(F)c2)c2ccc(N3CCOCC3)cc2n1Cc1ccccn1 [Compound 207, N-(3,4-Difluorobenzyl)-2-isopropyl-6-morpholino-1-(pyridin-2-ylmethyl)-1H-indole-3-carboxamide] | 0.13 µM | 97% | –
33 | CC[C@H]1COC(c2ccc3c(C(=O)NCc4ccc(F)c(F)c4)c(C(C)C)n(Cc4ccccc4)c3c2)=N1 [Compound 75, (S)-1-Benzyl-N-(3,4-difluorobenzyl)-6-(4-ethyl-4,5-dihydrooxazol-2-yl)-2-isopropyl-1H-indole-3-carboxamide] | 0.017 µM | 97% | –
